{
  "source": "patent US10465005B2",
  "about": "“JAML specific binding agents, antibodies, and uses related thereto” (Emory University, priority 2011, dated 2019)",
  "molecules": {"B1": {"name": "Ad5: recombinant adenoviral fiber knob protein Ad5, reported to bind murine CAR (protein)", "chain": "GAITVGNKNNDKLTLWTTPAPSPNCRLNAEKDAKLTLVLTKCGSQILATVSVLAVKGSLAPISGTVQSAHLIIRFDENGVLLNNSFLDPEYWNFRNGDLTEGTAYTNAVGFMPNLSAYPKSHGKTAKSNIVSQVYLNGDKTKPVTLTITLNGTQETGDTTPSAYSMSFSWDWSGHNYINEIFATSSYTFSYIAQE", "modifications": "left off: small tags and cut ends"}},
  "key": {"[1]": {"tested_on": "JAML shedding from PLB985", "assay": "JAML shedding with protease inhibitors, PLB985", "type": "cell-based, human", "conditions": "Phenanthroline; TAPI-2 1 μM", "experimental": "FIG. 5C. Inhibition of JAML shedding on the cell surface of PLB985 was confirmed by FACS analysis of cells stained with DW216. In the presence of inhibitors, activated cells maintained the same level of surface expression as the non-activated cells.\nTo explore the mechanisms for release of JAML from the surface of differentiated HL60 and PLB-985 cells during activation with PMA, PMA was added to cells in the presence or absence of a variety of protease inhibitors. The protease inhibitor cocktail from Sigma that targets serine proteases was used as well as cysteine proteases and several independent inhibitors. […] (Le Gall et al., 2003, JBC 278 No46 45255-45268).\nCells suspensions of adherent cells were prepared by trypsinization with Trypsin-EDTA (Sigma). After washing, cells were resuspended in FACS buffer (2% FBS in PBS+0.1% Na Azide). Approximately, 3-5×10^5 cells were incubated with 5-10 μg/ml of primary antibody for 1 hr at 4° C. followed by 3 washes in FACS buffer and incubation with 1 μg/ml secondary antibody conjugated with Alexa-488. After final washes, cells were analyzed using FACS Calibur. […] All samples were stained for JAML (DW100 mAb) and CD11b/CD18 (CBRM 1/29), and only CD11b/CD18 positive cells (PMNs) were analyzed for JAML expression."}, "[2]": {"tested_on": "JAML release from CHO-JAML-His transfectants", "assay": "JAML release with protease inhibitors, CHO-JAML-His transfectants", "type": "cell-based"}, "PMN": {"tested_on": "PMN", "assay": "Surface JAML on PMN after activation (flow cytometry)", "type": "cell-based, human", "conditions": "PMA 200 nM, suspension, 15 minutes at 37° c.; FIG. 4A", "experimental": "Freshly isolated PMN, not treated (No Tx), or treated with either fMLF (100 nM) or PMA (200 nM) in suspension for 15 minutes at 37° c. were fixed with 1% paraformaldehyde, stained for JAML (DW100) and CD11b/CD18 (CBRM 1/29) and analyzed for surface expression by flow cytometry.\nSince prior to transepithelial migration PMNs exit the blood vessels, whether JAML expression on PMNs would be preserved during migration across endothelial cells (HDMECs) towards a 10 μM fMLF, as described previously was evaluated. Indeed under similar conditions only a small portion of surface JAML was lost, but most of it was still detectable on PMN surface (FIG. 3B).\nThus whether PMN activation alone is sufficient to induce the loss of surface JAML or whether direct contact with the epithelium is required was examined. To test this, the expression of JAML was analyzed on PMNs that were stimulated in suspension with fMLF (100 μM) and PMA (200 nM). PMNs were allowed to adhere to epithelial cells for 1 hour. The loss of JAML could be correlated to the degree of PMN activation. […] This was again confirmed by immunofluorescence (FIG. 4B). PMN adhesion to epithelium in the absence of proinflamatory stimulus (as measured by flow cytometry, gating on Mac-1 positive PMNs) was also sufficient to induce a partial loss of surface JAML (FIG. 4C), in agreement with the small loss of surface JAML observed after migration through endothelial cells (FIG. 3B). […] Next, the observed loss of JAML during PMN activation may be due to its shedding from PMN surface and thus would be detectable in the supernatant of activated cells. To test this hypothesis, two antibodies, DW100 and DW216 that recognize two different epitopes of JAML were used in a sandwich ELISA assay to capture solubilized molecules in the supernatant of activated PMN."}, "[3]": {"tested_on": "HL-60 and PLB-985 cell lines", "assay": "Surface JAML on HL-60 and PLB-985 after PMA activation", "type": "cell-based, human", "conditions": "200 nM PMA, 30 minutes at 37° C.; FIG. 5A", "experimental": "Both HL60 and PLB985 (non-differentiated and differentiated) were washed in Hanks solution with Ca^++ and Mg^++ (H^+) at 30×10^6 cells per condition and resuspended in 350 μl H^+ or H^+ containing 200 nM PMA followed by 30 minutes incubation at 37° C. A cell aliquot was set aside for flow cytometry and cells were stained with monoclonal CBRM1/29 (CD11b/CD18) or DW100 anti JAML followed by Alexa Fluor 488 conjugated goat anti mouse antibody.\nThe findings of JAML shedding were extended to both HL-60 and PLB-985 cell lines. […] Upon activation, human neutrophils release microparticles,called ectosomes, directly from the cell surface and that ectosomes are implicated in the inflammatory response (Eken et al., 2008, J. Immunol. 180, 817-824). To test whether JAML molecules were released in microparticles, supernatants from activated cells were subjected to ultracentrifuge (100,000×g). […] Thus, JAML is indeed shed into the medium upon PMN activation as a soluble molecule."}, "monocytes": {"tested_on": "monocytes", "assay": "Surface JAML on monocytes after PMA activation", "type": "cell-based, human", "conditions": "15 minutes at 37° C., FIG. 11", "experimental": "Monocytes were isolated and purified from whole blood of healthy human donors, incubated on ice with either IgG control (solid histograms) or purified anti-JAML antibodies (5 μg/ml), followed by Alexa Fluor 488 conjugated goat anti mouse antibody before (NoTx) and after PMA activation (PMA, 15 minutes at 37° C.). JAML surface expression was analyzed by flow cytometry.\nFollowing the observation of a complete loss of JAML on PMNs that underwent TEM and with the use of JAML specific mAbs, it was determined that the loss of JAML was induced by PMN activation and that it correlated to the degree of activation and the strength of the given stimulus. […] JAML shedding is not restricted to PMNs alone. JAML is also expressed on blood monocytes. […] As monocytes trail the PMNs infiltrating mucosal surfaces, in addition to PMNs they would also be a source for soluble JAML, further enhancing its effects on epithelial function. […] The shedding of JAML is believed to be due to a zinc-dependent metalloprotease that is inhibited by phenanthroline, a zinc chelator molecule and TAPI-2, a hydroxymate acid-base derivative which inhibits zinc-dependent metalloprotease activities by binding specifically to the catalytic site of the enzyme."}, "CAR": {"target": "T1, CAR (Mus musculus, UniProt P97792)", "T1 construct": "from tissue; host or cells: mouse colonic mucosa", "T1 sequence (P97792 20-365)": "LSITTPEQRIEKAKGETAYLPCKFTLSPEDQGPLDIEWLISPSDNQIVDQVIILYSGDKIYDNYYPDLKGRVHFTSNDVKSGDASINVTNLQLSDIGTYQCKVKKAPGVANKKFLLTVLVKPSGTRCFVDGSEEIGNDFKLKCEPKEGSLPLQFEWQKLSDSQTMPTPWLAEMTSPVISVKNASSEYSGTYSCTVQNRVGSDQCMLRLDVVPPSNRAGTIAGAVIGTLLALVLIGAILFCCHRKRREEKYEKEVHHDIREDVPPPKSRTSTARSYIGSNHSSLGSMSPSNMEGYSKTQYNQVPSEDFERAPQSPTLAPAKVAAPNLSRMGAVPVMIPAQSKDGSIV", "assay": "Colonic mucosal wound healing in vivo", "conditions": "mice; I.P. twice a day 10 μg in 200 μl PBS; endoscopic imaging; FIG. 13B", "experimental": "(§1) To examine this in-vivo, the effect of inhibition of CAR function was analyzed on mucosal wound recovery. […] See Witherden et al., Science, 2010, 329(5996): 1205-1210. Whether administration of recombinant Ad5 inhibits colonic wound healing was examined in mice in a fashion analogous to the endogenous CAR ligand, JAML. Colonic mucosal wounds were generated using a mouse colonoscope, and wound recovery was examined 2 and 4 days post wounding by endoscopic imaging in the presence of Ad5, Ad11 (administered I.P, twice a day 10 μg in 200 μl PBS) or PBS alone.\nas §1, with “function” for “function was analyzed”, “recovery was analyzed.” for “recovery.”, “colonoscope (FIG. 13, Panel A),” for “colonoscope,”, “alone. […] The delayed wound closure was also evident from histological analysis (representative images, FIG. 13, Panel C) and whole mount preparation (representative images, FIG. 13, Panel D).” for “alone.”"}, "epithelial CAR": {"target": "T2, epithelial CAR (Mus musculus, UniProt P97792)", "T2 construct": "from tissue; host or cells: mouse colonic mucosa", "T2 sequence (P97792 20-365)": "T1 sequence (P97792 20-365)", "assay": "Immunofluorescence of wounded mouse colonic tissue", "type": "in vivo", "conditions": "I.P. administered his-tagged protein; 1 day after wounding; FIG. 13E"}, "murine CAR": {"target": "T3, murine CAR (Mus musculus, UniProt P97792)", "T3 sequence (P97792 20-365)": "T1 sequence (P97792 20-365)", "conditions": "cited from earlier work"}},
  "data": [
    {"molecule": "CC(C)C[C@H](CC(=O)NO)C(=O)N[C@H](C(=O)N[C@@H](C)C(=O)NCCN)C(C)(C)C", "note": "[TAPI-2]", "values": [
      {"measurement": "inhibition of PMA-induced JAML shedding, PLB985", "setting": "[1]", "result": "inhibition of shedding"},
      {"measurement": "inhibition of PMA-induced JAML release, CHO-JAML-His transfectants", "setting": "[2]", "result": "strongly inhibited JAML release due to PMA activation"}
    ]},
    {"molecule": "CCCCCCCCCCCCCC(=O)O[C@@H]1[C@@H](C)[C@@]2(O)[C@@H](C=C(CO)C[C@]3(O)C(=O)C(C)=C[C@@H]23)[C@@H]2C(C)(C)[C@]12OC(C)=O", "note": "[PMA, Phorbol Myristate Acetate]", "values": [
      {"measurement": "surface JAML on PMN after PMA", "setting": "PMN", "result": "complete loss of surface JAML from PMNs"},
      {"measurement": "surface JAML on HL-60 and PLB-985 after PMA", "setting": "[3]", "result": "complete loss of surface JAML"},
      {"measurement": "JAML expression on monocytes after PMA", "setting": "monocytes", "result": "lost upon activation with PMA"}
    ]},
    {"molecule": "B1", "values": [
      {"measurement": "mucosal wound healing 4 days after wounding", "setting": "CAR", "result": "~20", "unit": "%"},
      {"measurement": "colocalization with epithelial CAR at wounded areas", "setting": "epithelial CAR", "result": "colocalizes with epithelial CAR at wounded areas"},
      {"measurement": "binding to murine CAR and competition with JAML binding (Witherden et al. 2010)", "setting": "murine CAR", "result": "has been reported to bind murine CAR and compete with JAML binding"}
    ]}
  ]
}
